Source: PMC2920140 (Inorganic chemistry, 2010)

Molecular target: T1, CLOCK PAS–A (murine CLOCK PAS-A domain, mCLOCK) (Mus musculus, UniProt O08785)
T1 sequence (O08785 103-265): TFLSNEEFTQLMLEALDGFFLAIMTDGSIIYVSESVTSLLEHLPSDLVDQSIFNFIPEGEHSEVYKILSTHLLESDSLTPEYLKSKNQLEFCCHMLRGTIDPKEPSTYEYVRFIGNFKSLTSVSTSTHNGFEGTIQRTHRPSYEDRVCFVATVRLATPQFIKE
Assay: UV-visible spectrophotometric titration, global nonlinear least squares fit
Type: binding

Kd: 1050 nM
SMILES: C=CC1=C(C)C2=Cc3c(C=C)c(C)c4[n]3[Fe]([Cl])[n]3c(c(C)c(CCC(=O)O)c3=CC3=NC(=C4)C(C)=C3CCC(=O)O)=CC1=N2 [hemin]
